The test addresses T1, human RXFP1 (Homo sapiens, UniProt Q9HBX9).
T1 construct: expressed in transfected cells
T1 sequence (Q9HBX9 1-757): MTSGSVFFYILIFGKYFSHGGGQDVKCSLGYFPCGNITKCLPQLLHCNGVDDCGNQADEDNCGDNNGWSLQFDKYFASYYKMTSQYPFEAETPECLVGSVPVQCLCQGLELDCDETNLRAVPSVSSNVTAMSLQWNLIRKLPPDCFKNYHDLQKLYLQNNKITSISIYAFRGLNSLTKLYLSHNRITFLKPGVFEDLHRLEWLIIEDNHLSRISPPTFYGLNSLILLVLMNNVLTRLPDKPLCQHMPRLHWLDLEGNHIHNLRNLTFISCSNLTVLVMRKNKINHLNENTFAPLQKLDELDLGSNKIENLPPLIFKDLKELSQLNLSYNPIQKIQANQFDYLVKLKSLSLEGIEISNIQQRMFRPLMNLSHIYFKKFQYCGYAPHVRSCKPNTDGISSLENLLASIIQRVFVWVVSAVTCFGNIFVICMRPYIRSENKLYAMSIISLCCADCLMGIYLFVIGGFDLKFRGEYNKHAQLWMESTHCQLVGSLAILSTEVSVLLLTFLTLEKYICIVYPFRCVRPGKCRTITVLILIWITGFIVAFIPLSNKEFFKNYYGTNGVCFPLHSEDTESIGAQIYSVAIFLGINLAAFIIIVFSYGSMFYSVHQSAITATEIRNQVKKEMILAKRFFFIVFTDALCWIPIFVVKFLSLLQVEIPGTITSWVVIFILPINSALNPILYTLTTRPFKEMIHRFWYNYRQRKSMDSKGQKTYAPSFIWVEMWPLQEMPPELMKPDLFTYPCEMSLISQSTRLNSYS
The test can be described thus: hRXFP1 HEK293 cAMP assay (HTRF). In kind it is cell-based. Conditions: HEK293 cells stably expressing human RXFP1; 30 min at rt; intracellular cAMP by HTRF. An outline of the steps: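 HEK293 cells stably expressing human RXFP1 treated 30 min at rt with compound (0.010 nM to 50 μM, 2% DMSO) in HBSS/HEPES buffer with 0.5 mM IBMX. Intracellular cAMP measured by HTRF (665/590 nm ratio) against a cAMP standard curve; potency fitted by 4-parameter logistic.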
In general terms: cAMP levels reflect the balance of adenylyl cyclase and phosphodiesterase activity.
Take `COc1ccc(C2CCCN(CC(=O)N(C)C)C2)cc1C(=O)Nc1c(C(=O)Nc2ccc(F)c(C(F)(F)F)c2)sc2cc(C(F)(F)F)ccc12` (single isomer, unassigned) [Example 82, 3-(5-(1-(2-(dimethylamino)-2-oxoethyl)piperidin-3-yl)-2-methoxy-benzamido)-N-(4-fluoro-3-(trifluoromethyl)phenyl)-6-(trifluoromethyl) benzo[b] thiophene-2-carboxamide]: the EC50 worked out at 978 nM. This lies in the sub-micromolar range.

In turn, `COc1ccc(C2CCCN(CCS(C)(=O)=O)C2)cc1C(=O)Nc1c(C(=O)Nc2ccc(F)c(C(F)(F)F)c2)sc2cc(C(F)(F)F)ccc12` (single isomer, unassigned) [Example 86, N-(4-fluoro-3-(trifluoromethyl)phenyl)-3-(2-methoxy-5-(1-(2-(methylsulfonyl)ethyl)piperidin-3-yl)benzamido)-6-(trifluoromethyl) benzo[b] thiophene-2-carboxamide] registered an EC50 of 1150 nM.

Molecule `COc1ccc(C2CCCN(C(=O)CN(C)C)C2)cc1C(=O)Nc1c(C(=O)Nc2ccc(F)c(C(F)(F)F)c2)sc2cc(C(F)(F)F)ccc12` (single isomer, unassigned) [Example 87, 3-(5-(1-(dimethylglycyl)piperidin-3-yl)-2-methoxy-benzamido)-N-(4-fluoro-3-(trifluoromethyl)phenyl)-6-(trifluoromethyl) benzo[b] thiophene-2-carboxamide] displayed an EC50 of 1160 nM.

The molecule `COc1ccc(C2CCCN(C(=O)CO)C2)cc1C(=O)Nc1c(C(=O)Nc2ccc(F)c(C(F)(F)F)c2)sc2cc(C(F)(F)F)ccc12` (single isomer, unassigned) [Example 91, N-[4-fluoro-3-(trifluoromethyl)phenyl]-3-{5-[1-(2-hydroxyacetyl)piperidin-3-yl]-2-methoxy-benzamido}-6-(trifluoromethyl)-1-benzothiophene-2-carboxamide] had an EC50 of 95.8 nM.

In turn, `COc1ccc(C2CCCN(C(=O)C(C)(C)CO)C2)cc1C(=O)Nc1c(C(=O)Nc2ccc(F)c(C(F)(F)F)c2)sc2cc(C(F)(F)F)ccc12` (single isomer, unassigned) [Example 93, N-[4-fluoro-3-(trifluoromethyl)phenyl]-3-{5-[1-(3-hydroxy-2,2-dimethyl-propanoyl)piperidin-3-yl]-2-methoxy-benzamido}-6-(trifluoromethyl)-1-benzothiophene-2-carboxamide] had an EC50 of 48.4 nM. Compared with the last molecule, the EC50 is about 2-fold lower.

`COc1ccc(C2CCCN(CC(=O)N(C)C)C2)cc1C(=O)Nc1c(C(=O)Nc2ccc(F)c(C(F)(F)F)c2)sc2cc(C(F)(F)F)ccc12` (single isomer, unassigned) [Example 101, 3-(5-(1-(2-(dimethylamino)-2-oxoethyl)piperidin-3-yl)-2-methoxy-benzamido)-N-(4-fluoro-3-(trifluoromethyl)phenyl)-6-(trifluoromethyl) benzo[b] thiophene-2-carboxamide] had an EC50 of 4420 nM. Against the preceding molecule, the EC50 is about 91-fold higher.

As for `COc1ccc(C2CCCN(C(=O)CO)C2)cc1C(=O)Nc1c(C(=O)Nc2ccc(F)c(C(F)(F)F)c2)sc2cc(C(F)(F)F)ccc12` (single isomer, unassigned) [Example 103, N-[4-fluoro-3-(trifluoromethyl)phenyl]-3-{5-[1-(2-hydroxyacetyl)piperidin-3-yl]-2-methoxy-benzamido}-6-(trifluoromethyl)-1-benzothiophene-2-carboxamide], a half-maximal effect (EC50) was put at 690 nM.

The molecule `COc1ccc(C2CCCN(C(=O)C(C)(C)CO)C2)cc1C(=O)Nc1c(C(=O)Nc2ccc(F)c(C(F)(F)F)c2)sc2cc(C(F)(F)F)ccc12` (single isomer, unassigned) [Example 105, N-[4-fluoro-3-(trifluoromethyl)phenyl]-3-{5-[1-(3-hydroxy-2,2-dimethyl-propanoyl)piperidin-3-yl]-2-methoxy-benzamido}-6-(trifluoromethyl)-1-benzothiophene-2-carboxamide] yielded an EC50 of 149 nM.

`COc1ccc(N2CCCC(C(C)(C)O)C2)cc1C(=O)Nc1c(C(=O)Nc2ccc(F)c(C(F)(F)F)c2)sc2cc(C(F)(F)F)ccc12` (single isomer, unassigned) [Example 107, N-(4-fluoro-3-(trifluoromethyl)phenyl)-3-(5-(3-(2-hydroxypropan-2-yl)piperidin-1-yl)-2-methoxy-benzamido)-6-(trifluoromethyl) benzo[b] thiophene-2-carboxamide]: the EC50 stood at 918 nM.

For the molecule `COc1ccc(N2CCCC(C(C)(C)O)C2)cc1C(=O)Nc1c(C(=O)Nc2ccc(F)c(C(F)(F)F)c2)sc2cc(C(F)(F)F)ccc12` (single isomer, unassigned) [Example 108, N-(4-fluoro-3-(trifluoromethyl)phenyl)-3-(5-(3-(2-hydroxypropan-2-yl)piperidin-1-yl)-2-methoxy-benzamido)-6-(trifluoromethyl) benzo[b] thiophene-2-carboxamide], the EC50 was 1430 nM.

`COc1ccc(CNC(c2ccc(F)c(-c3ccc(OC)c(C(=O)Nc4c(C(=O)Nc5ccc(F)c(C(F)(F)F)c5)sc5cc(C(F)(F)F)ccc45)c3)c2)C(F)(F)F)cc1OC` (single isomer, unassigned) [Example 114, 3-(5′-(1-((3,4-dimethoxybenzyl)amino)-2,2,2-trifluoroethyl)-2′-fluoro-4-methoxy-[1,1′-biphenyl]-3-carboxamido)-N-(4-fluoro-3-(trifluoromethyl)phenyl)-6-(trifluoromethyl) benzo[b] thiophene-2-carboxamide] showed an EC50 of 22.5 nM. This EC50 lies about 64-fold lower than the previous one.

`COc1ccc(CNC(c2ccc(F)c(-c3ccc(OC)c(C(=O)Nc4c(C(=O)Nc5ccc(F)c(C(F)(F)F)c5)sc5cc(C(F)(F)F)ccc45)c3)c2)C(F)(F)F)cc1OC` (single isomer, unassigned) [Example 115, 3-(5′-(1-((3,4-dimethoxybenzyl)amino)-2,2,2-trifluoroethyl)-2′-fluoro-4-methoxy-[1,1′-biphenyl]-3-carboxamido)-N-(4-fluoro-3-(trifluoromethyl)phenyl)-6-(trifluoromethyl) benzo[b] thiophene-2-carboxamide] displayed an EC50 of 98 nM.

Regarding `COc1ccc(C2CCNC2)cc1C(=O)Nc1c(C(=O)Nc2ccc(F)c(C(F)(F)F)c2)sc2cc(C(F)(F)F)ccc12` (single isomer, unassigned) [Example 133, N-(4-fluoro-3-(trifluoromethyl)phenyl)-3-(2-methoxy-5-(pyrrolidin-3-yl)benzamido)-6-(trifluoromethyl) benzo[b] thiophene-2-carboxamide], the EC50 turned out to be 876 nM.

As for `COc1ccc(C2CCN(C(=O)C(C)(C)CO)C2)cc1C(=O)Nc1c(C(=O)Nc2ccc(F)c(C(F)(F)F)c2)sc2cc(C(F)(F)F)ccc12` (single isomer, unassigned) [Example 139, N-(4-fluoro-3-(trifluoromethyl)phenyl)-3-(5-(1-(3-hydroxy-2,2-dimethyl-propanoyl)pyrrolidin-3-yl)-2-methoxy-benzamido)-6-(trifluoromethyl) benzo[b] thiophene-2-carboxamide], the EC50 turned out to be 72.6 nM.

With `COc1ccc(C2CCN(CCS(C)(=O)=O)C2)cc1C(=O)Nc1c(C(=O)Nc2ccc(F)c(C(F)(F)F)c2)sc2cc(C(F)(F)F)ccc12` (single isomer, unassigned) [Example 149, N-(4-fluoro-3-(trifluoromethyl)phenyl)-3-(2-methoxy-5-(1-(2-(methylsulfonyl)ethyl)pyrrolidin-3-yl)benzamido)-6-(trifluoromethyl) benzo[b] thiophene-2-carboxamide], the EC50 worked out at 1200 nM.

As for `COc1ccc(C2CCN(C(=O)C(C)(C)CO)C2)cc1C(=O)Nc1c(C(=O)Nc2ccc(F)c(C(F)(F)F)c2)sc2cc(C(F)(F)F)ccc12` (single isomer, unassigned) [Example 150, N-(4-fluoro-3-(trifluoromethyl)phenyl)-3-(5-(1-(3-hydroxy-2,2-dimethyl-propanoyl)pyrrolidin-3-yl)-2-methoxy-benzamido)-6-(trifluoromethyl) benzo[b] thiophene-2-carboxamide], the EC50 came to 228 nM. This EC50 is about 5.3-fold lower than that of the molecule before.

`COc1ccc(C2CCN(CCS(C)(=O)=O)C2)cc1C(=O)Nc1c(C(=O)Nc2ccc(F)c(C(F)(F)F)c2)sc2cc(C(F)(F)F)ccc12` (single isomer, unassigned) [Example 153, N-(4-fluoro-3-(trifluoromethyl)phenyl)-3-(2-methoxy-5-(1-(2-(methylsulfonyl)ethyl)pyrrolidin-3-yl)benzamido)-6-(trifluoromethyl) benzo[b] thiophene-2-carboxamide] came in with an EC50 of 314 nM.

Molecule `COc1ccc(C2CC2C(=O)NC2CCOCC2)cc1C(=O)Nc1c(C(=O)Nc2ccc(F)c(C(F)(F)F)c2)sc2cc(C(F)(F)F)ccc12` (single isomer, unassigned) [Example 157, N-[4-fluoro-3-(trifluoromethyl)phenyl]-3-(2-methoxy-5-{2-[(oxan-4-yl)carbamoyl]cyclopropyl}benzamido)-6-(trifluoromethyl)-1-benzothiophene-2-carboxamide] registered an EC50 of 1040 nM.

A word on the EC50: it is the concentration needed to bring the measured effect to its halfway point. Lower therefore signals greater potency.
